Assay results from ChEMBL document CHEMBL1201862, “PubChem BioAssay data set” (2004).
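Interpolation was linear, between the two tested concentrations surrounding the appropriate level; five concentrations were tested over 48 hours in 96-well plates. Abbreviation: GI50, concentration required for 50% inhibition of growth.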 Activity calls are given as the source filed them. Cut-off read from the data, not from the text of the source: active = GI50 up to about 1.1 µM and inactive = higher.

How the values were obtained:
Assay in all cases: DTP human tumour cell line panel, 48 h
SNB-78 = system: SNB-78
RXF 631 = system: RXF 631
DMS-273 = system: DMS-273
DMS-114 = system: DMS-114
DLD-1 = system: DLD-1
LXFL 529 = system: LXFL 529
HOP-18 = system: HOP-18
XF498 = system: XF498
KM-20L2 = system: KM-20L2

SMILES	GI50 (SNB-78)	GI50 (RXF 631)	GI50 (DMS-273)	GI50 (DMS-114)	GI50 (DLD-1)	GI50 (LXFL 529)	GI50 (HOP-18)	GI50 (XF498)	GI50 (KM-20L2)
CS/C(=C(\S)c1ccccc1)c1ccccc1	> 100 µM (inactive)	> 100 µM (inactive)	> 100 µM (inactive)	> 100 µM (inactive)	> 100 µM (inactive)	> 100 µM (inactive)	> 100 µM (inactive)	> 100 µM (inactive)	> 31.6 µM (inactive)
O=c1c2ccccc2nc(-c2ccccc2)n1NC(=S)Nc1cccc(Cl)c1	–	–	66.4 µM (inactive)	67.3 µM (inactive)	> 100 µM (inactive)	> 100 µM (inactive)	> 100 µM (inactive)	–	–
N=C(N)N/N=C(/c1nc2ccc([N+](=O)[O-])cc2[nH]c1=O)C(O)c1ccc([N+](=O)[O-])cc1 (configuration not stated)	> 100 µM (inactive)	> 100 µM (inactive)	55.7 µM (inactive)	8.28 µM (inactive)	87.3 µM (inactive)	30.8 µM (inactive)	–	40 µM (inactive)	18 µM (inactive)
CC(=O)OC1[C@H]2c3cc4c(cc3CN3CCC(C[C@@H]1OC(C)=O)C23)OCO4 (some centres not stated)	> 75 µM (inactive)	–	> 75 µM (inactive)	> 75 µM (inactive)	> 75 µM (inactive)	> 75 µM (inactive)	–	–	> 75 µM (inactive)
O/N=N/c1cnccn1	> 918 µM (inactive)	–	> 1250 µM (inactive)	929 µM (inactive)	> 1250 µM (inactive)	–	> 1250 µM (inactive)	–	> 1250 µM (inactive)
C/C(=N/NC(N)=S)C(CN1CCOCC1)C(C1=C(O)c2ccccc2OC1)c1ccccc1 (configuration not stated)	> 100 µM (inactive)	–	–	–	> 100 µM (inactive)	> 100 µM (inactive)	> 100 µM (inactive)	> 100 µM (inactive)	> 100 µM (inactive)
CC1(C)OC(=O)C(C#N)=C1/C=C/c1coc2ccc(Cl)cc2c1=O	33.8 µM (inactive)	38.8 µM (inactive)	35.1 µM (inactive)	34.8 µM (inactive)	23.1 µM (inactive)	27.9 µM (inactive)	–	–	42.2 µM (inactive)
COC(=O)NN=C1C(C)(C)C(=O)C1(C)C	> 100 µM (inactive)	> 100 µM (inactive)	> 100 µM (inactive)	–	> 100 µM (inactive)	> 100 µM (inactive)	–	> 100 µM (inactive)	> 100 µM (inactive)
O=[N+]([O-])c1ccc(-c2ccc(-c3csc(Nc4ccccc4)n3)o2)cc1	8.17 µM (inactive)	–	23 µM (inactive)	25.7 µM (inactive)	23.3 µM (inactive)	18.6 µM (inactive)	15.8 µM (inactive)	18.4 µM (inactive)	21 µM (inactive)
O=C1[C@@H]2C(c3ccccc3[N+](=O)[O-])=[N+](c3ccccc3)O[C@@H]2C(=O)N1c1ccc(Cc2ccc(N3C(=O)[C@H]4C(c5ccccc5[N+](=O)[O-])=[N+](c5ccccc5)O[C@H]4C3=O)cc2)cc1	> 100 µM (inactive)	–	> 100 µM (inactive)	> 100 µM (inactive)	> 100 µM (inactive)	94.6 µM (inactive)	85.9 µM (inactive)	–	> 100 µM (inactive)
CSC(C1c2ccccc2N(C)c2[nH]c(=O)n(C)c(=O)c21)S(=O)(=O)c1ccc(C)cc1 (configuration not stated)	> 100 µM (inactive)	–	43.5 µM (inactive)	> 100 µM (inactive)	> 100 µM (inactive)	56.4 µM (inactive)	> 100 µM (inactive)	> 100 µM (inactive)	–
COc1cccc(NC(=O)CC(=O)N2NC(c3ccccc3)C(/N=N/c3cccc(C(=O)O)c3)C2=O)c1 (configuration not stated)	> 100 µM (inactive)	–	–	> 100 µM (inactive)	> 100 µM (inactive)	85.1 µM (inactive)	< 0.01 µM (active)	> 100 µM (inactive)	> 100 µM (inactive)
COC(=O)/C=C1\CCC2[C@@H](C(=O)CC3[C@]2(C)CCC[C@@]3(C)C(=O)OC)C1C (some centres not stated)	29.2 µM (inactive)	25.4 µM (inactive)	22 µM (inactive)	16.1 µM (inactive)	29.2 µM (inactive)	8.73 µM (inactive)	29.4 µM (inactive)	13.7 µM (inactive)	29.3 µM (inactive)
Cn1cc2c(n1)c(N/N=C/c1ccccc1)nn1nnnc21	> 100 µM (inactive)	> 100 µM (inactive)	> 100 µM (inactive)	> 100 µM (inactive)	> 100 µM (inactive)	> 100 µM (inactive)	> 100 µM (inactive)	> 100 µM (inactive)	> 100 µM (inactive)
CN1C/C(=C\c2ccc(C(=O)O)cc2)C(=O)/C(=C/c2ccc(C(=O)O)cc2)C1	> 100 µM (inactive)	> 100 µM (inactive)	> 100 µM (inactive)	> 100 µM (inactive)	> 100 µM (inactive)	> 100 µM (inactive)	> 100 µM (inactive)	> 100 µM (inactive)	> 100 µM (inactive)
[O-]c1c2c(nn1-c1ccc(Cl)cc1)c1ccccc1c[n+]2Cc1ccccc1	> 100 µM (inactive)	–	> 100 µM (inactive)	> 100 µM (inactive)	81.5 µM (inactive)	> 100 µM (inactive)	> 100 µM (inactive)	35 µM (inactive)	> 100 µM (inactive)
Fc1cccc(F)c1C1SCc2nc3ccccc3n21 (configuration not stated) [THIAZOLOBENZIMIDAZOLE]	63.5 µM (inactive)	–	50.2 µM (inactive)	–	> 100 µM (inactive)	60.4 µM (inactive)	53.6 µM (inactive)	52 µM (inactive)	> 100 µM (inactive)
O=C(/C=N/c1ccccc1C(=O)[O-])c1cccs1.O=C(/C=N/c1ccccc1C(=O)[O-])c1cccs1.[Zn+2]	–	–	> 100 µM (inactive)	–	39.9 µM (inactive)	–	> 100 µM (inactive)	–	> 100 µM (inactive)
CP(=O)(CCSc1ccccc1)c1ccccc1 (configuration not stated)	> 100 µM (inactive)	–	> 100 µM (inactive)	> 100 µM (inactive)	> 100 µM (inactive)	> 100 µM (inactive)	> 100 µM (inactive)	> 100 µM (inactive)	> 100 µM (inactive)
O=[N+]([O-])c1ccc(Cc2nc3ccccc3s2)cc1	> 100 µM (inactive)	–	82.4 µM (inactive)	39.5 µM (inactive)	41.6 µM (inactive)	61 µM (inactive)	> 100 µM (inactive)	> 100 µM (inactive)	> 100 µM (inactive)
COc1ccc(NCC#N)cc1	> 100 µM (inactive)	> 100 µM (inactive)	> 100 µM (inactive)	> 100 µM (inactive)	> 100 µM (inactive)	> 100 µM (inactive)	> 100 µM (inactive)	> 100 µM (inactive)	> 100 µM (inactive)
O=C(CSc1nnc(Cc2ccccc2)o1)Nc1ccc([N+](=O)[O-])cc1	> 100 µM (inactive)	–	> 100 µM (inactive)	22.4 µM (inactive)	> 100 µM (inactive)	78.2 µM (inactive)	–	–	> 100 µM (inactive)
FC(F)(F)c1nc(-c2ccccc2)oc1Sc1oc(-c2ccccc2)nc1C(F)(F)F	> 100 µM (inactive)	–	66.7 µM (inactive)	40.3 µM (inactive)	> 100 µM (inactive)	> 100 µM (inactive)	73.6 µM (inactive)	34.8 µM (inactive)	> 100 µM (inactive)
COc1cc([C@@H]2c3cc4c(cc3[C@@H](NC(=O)c3ccc(C#N)cc3)C3COC(=O)[C@@H]32)OCO4)cc(OC)c1O (some centres not stated)	6.03 µM (inactive)	–	0.0276 µM (active)	0.315 µM (active)	1.64 µM (inactive)	4.61 µM (inactive)	55.1 µM (inactive)	–	0.785 µM (active)
CCOC(=O)/C(=C\c1cccs1)P(=O)(OCC)OCC	49.3 µM (inactive)	55.8 µM (inactive)	34.6 µM (inactive)	21.5 µM (inactive)	21.2 µM (inactive)	18.6 µM (inactive)	31.3 µM (inactive)	–	21.9 µM (inactive)
c1ccc(N2CCN(CCN3CCc4c([nH]c5ccccc45)C3c3cccnc3)CC2)cc1 (configuration not stated)	56.8 µM (inactive)	39.5 µM (inactive)	> 100 µM (inactive)	> 100 µM (inactive)	> 100 µM (inactive)	> 100 µM (inactive)	> 100 µM (inactive)	89.9 µM (inactive)	> 100 µM (inactive)
